Reference: US20200405708A1, “TREATMENT OF HEREDITARY ANGIOEDEMA” (Attune Pharmaceuticals, Inc., priority 2018, published 2020)
Values joined by “and” are separate entries in the source; they are usually repeats but may differ in a detail not shown here. Identical values can stand only once. “Also recorded” adds a separate entry of the source.

Tests used:
plasma kallikrein [1] = target: T1, plasma kallikrein (Homo sapiens, UniProt P03952); assay: biochemical inhibition assay of plasma kallikrein
Method: (§1) Selectivity was evaluated by biochemical inhibition on plasma kallikrein relative to other serine proteases, including tissue kallikrein 5, plasmin, Factor Xa, Factor VIIa, thrombin, and tissue plasminogen activator (tPA). Potency was evaluated by biochemical inhibition and contact activation assays in human plasma. Pharmacokinetic exposure was evaluated in monkeys after a single oral administration of Compound A at 15 mg/kg. The no-observed-adverse-effect-level (NOAEL) was evaluated in 14-day non-GLP rat and monkey toxicology studies; animals were given daily doses of 100 or 300 mg/kg.
Target sequence in this assay (P03952 20-638): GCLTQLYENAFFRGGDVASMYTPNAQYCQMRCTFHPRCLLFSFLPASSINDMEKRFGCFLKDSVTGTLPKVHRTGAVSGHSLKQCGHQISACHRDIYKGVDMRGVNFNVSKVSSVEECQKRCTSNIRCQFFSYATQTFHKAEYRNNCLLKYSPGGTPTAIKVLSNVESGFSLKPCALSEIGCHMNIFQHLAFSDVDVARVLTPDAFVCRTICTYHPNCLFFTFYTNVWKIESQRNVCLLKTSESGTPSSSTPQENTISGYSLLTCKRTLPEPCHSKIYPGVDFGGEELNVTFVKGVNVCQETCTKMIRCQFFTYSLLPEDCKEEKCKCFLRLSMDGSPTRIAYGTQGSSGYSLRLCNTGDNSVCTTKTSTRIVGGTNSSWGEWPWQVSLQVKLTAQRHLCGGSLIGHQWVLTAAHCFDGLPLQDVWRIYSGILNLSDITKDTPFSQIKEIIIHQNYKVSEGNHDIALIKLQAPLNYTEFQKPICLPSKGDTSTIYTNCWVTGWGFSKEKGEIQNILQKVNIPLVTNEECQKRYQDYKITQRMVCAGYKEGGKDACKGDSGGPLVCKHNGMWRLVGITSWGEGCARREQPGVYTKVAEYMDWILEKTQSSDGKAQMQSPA

[2] = test system: tissue kallikrein 5, tissue kallikrein 7, tissue kallikrein 14, plasmin, Factor Xa, Factor VIIa, thrombin, tissue plasminogen activator (tPA); assay: selectivity by biochemical inhibition versus other serine proteases
Method: as §1

[3] = pharmacokinetic exposure after single oral dose in monkeys; format: in vivo, monkey
Method: as §1

[4] = 14-day non-GLP rat and monkey toxicology studies; format: in vivo; settings: daily doses of 100 or 300 mg/kg
Method: as §1

[5] = 28-day repeat dose general toxicity study in monkeys; format: in vivo, monkey
Method: FIG. 8. Graphic representation of 28-day repeat exposure in monkey toxicology study (NOAEL (100 mg/kg/day) at Day 28.

cytochrome P450 (CYP) = assay: cytochrome P450 inhibition; format: in vitro ADME
[6] = bioavailability after single oral administration, rats; format: in vivo, rat; settings: single oral 30 mg/kg
[7] = bioavailability after single oral administration, dogs; format: in vivo, dog; settings: single oral 30 mg/kg
[8] = bioavailability after single oral administration, monkeys; format: in vivo, monkey; settings: single oral 30 mg/kg
[9] = recovery of radiolabeled [14C] Compound A after single oral dosing in rats; format: in vivo, rat
Method: (§2) FIG. 7. A table showing metabolism and pharmacokinetics results of single oral dosing of Compound A. Metabolism study was conducted with radiolabeled [^14C] Compound A.

[10] = single dose safety pharmacology in rat and monkey; format: in vivo
Text: FIG. 9. A table showing safety pharmacology of Compound A single dose in rat and monkey.

[11] = toxicology and genotoxicity studies
Text: FIG. 10. A table showing toxicology/genotoxicity of Compound A.

[12] = single-ascending-dose and food effect pharmacokinetics in healthy male participants; format: in vivo; set-up: Mean C24: unit not given here; settings: human; for AUCinf, geometric mean (geometric % CV) / Cmax, geometric mean (geometric % CV): n = 6; for Mean Cmax: in ng/mL; for Mean AUCinf: in ng·h/mL
Method: (§3) A randomized, double-blind, placebo-controlled single ascending dose and crossover food effect study
(§4) 48 healthy male participants (6 active:2 placebo in each of the 6 dose cohorts) received a single daily dose of Compound A 50 mg, 100 mg, 150 mg, 200 mg, 400 mg, or 800 mg. Subjects in the 100 mg dose cohort received first dose of Compound A under fasted condition in period 1 and after a 7-day washout, a second dose 30 minutes after the start of a high fat, high caloric meal in period 2. Serial blood draws were collected to calculate PK parameters, including area under the curve (AUC) from time zero to infinity (AUC), maximum concentration (Cmax), time of maximum concentration (Tmax), and half-life. Safety measures including treatment-emergent adverse events (TEAEs) were assessed.

[13] = safety and tolerability in single-ascending-dose study, healthy male participants; format: in vivo, human; settings: all 6 dose cohorts
Method: as §3, §4

[14] = metabolism and pharmacokinetics studies of single oral dosing, all species; format: in vivo
Method: as §2

plasma kallikrein [15] = target: T1, plasma kallikrein; assay: contact activation assay in human plasma (ex vivo); format: biochemical; set-up: from tissue; host or cells: human plasma
Method: as §1
Target sequence in this assay (P03952 391-638 limits assumed): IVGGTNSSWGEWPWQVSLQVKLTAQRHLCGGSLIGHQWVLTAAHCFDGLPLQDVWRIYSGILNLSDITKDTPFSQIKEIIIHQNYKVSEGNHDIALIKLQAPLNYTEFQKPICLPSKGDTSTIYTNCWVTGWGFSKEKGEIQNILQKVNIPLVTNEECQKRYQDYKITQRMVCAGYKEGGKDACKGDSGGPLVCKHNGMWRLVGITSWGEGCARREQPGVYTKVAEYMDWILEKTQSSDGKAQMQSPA
Target sequence in this assay (P03952 20-390 partner limits assumed): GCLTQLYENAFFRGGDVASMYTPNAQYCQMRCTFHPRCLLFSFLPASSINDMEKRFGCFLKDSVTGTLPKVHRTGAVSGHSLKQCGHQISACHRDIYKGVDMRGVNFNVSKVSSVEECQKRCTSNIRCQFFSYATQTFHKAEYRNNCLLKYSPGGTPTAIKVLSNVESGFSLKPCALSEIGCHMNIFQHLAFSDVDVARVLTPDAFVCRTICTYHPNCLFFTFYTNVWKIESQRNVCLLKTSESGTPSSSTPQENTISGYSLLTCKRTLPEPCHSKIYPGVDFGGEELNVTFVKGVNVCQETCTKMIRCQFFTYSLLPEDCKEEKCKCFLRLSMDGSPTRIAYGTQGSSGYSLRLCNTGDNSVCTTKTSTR

[16] = 28-day repeat dose general toxicity study in rats
[17] = monkeys, single oral dose 15 mg/kg
[18] = 100 mg, fed (high fat, high caloric meal)

## Cc1cc(N)nc(C)c1CNC(=O)c1ccnc(Cc2ccc3ncc(Cl)cc3c2)c1 [Compound A, N-((6-amino-2,4-dimethylpyridin-3-yl)methyl)-2-((3-chloroquinolin-6-yl)methyl)isonicotinamide]
Plasma kallikrein [1]
  IC50: 2.7 nM
  IC90: 16.2 nM
Plasma kallikrein [1]; biochemical inhibition assay
  fold more potent than C1-INH at inhibiting plasma kallikrein: 9 fold and ~10 fold
[2]
  selectivity for plasma kallikrein versus other closely related serine proteases: > 2000 fold
[3]; monkey, in vivo, po, 15 mg/kg
  24-h exposure relative to EC90: 4 fold
  Cmax exposure relative to EC90: 25 fold
[3]; [17]
  24-hour exposure (C24) relative to EC50: 30 fold
  Cmax exposure relative to EC50: > 180 ×
[3]; single dose 15 mg/kg
  fold below the no-observed-adverse-effect-level (NOAEL): 20 fold
[4]
  no-observed-adverse-effect-level (NOAEL): 300 mg/kg
[5]; NOAEL dose, day 28
  Cmax exposure relative to EC50: > 4500 ×
[5]; monkey, in vivo, 100 mg/kg/day
  24-h exposure relative to EC90: 20 fold
  Cmax exposure relative to EC90: > 600 fold
[5]; monkey, in vivo, 300 mg/kg/day
  findings at high-dose level: adverse findings in monkeys reversed upon dose reduction to 150 mg/kg/day dose
[5]; monkeys, 28-day repeat dose
  NOAEL: 100 mg/kg/day
Cytochrome P450 (CYP)
  inhibition of P450 enzymes: does not significantly inhibit P450 enzymes
[6]
  bioavailability: > 40%
[7]
  bioavailability: > 40%
[8]
  bioavailability: > 40%
[9]
  recovery of radiolabeled compound (in words): comprehensive recovery of radiolabeled Compound A
[9]; intact and bile duct cannulated rats
  recovery: 99%
[10]
  mortality or adverse effects on CNS, respiratory, cardiovascular functions: no mortality or adverse effects were observed on central nervous system, respiratory, and cardiovascular functions
[11]
  genotoxicity or coagulation issues: no genotoxicity or coagulation issues were noted
[12]; 100 mg
  AUCinf % Ratio, fed vs. fasted: 150.3%
  Cmax % Ratio, fed vs. fasted: 128.5%
[12]; 100 mg, fasted
  AUCinf, geometric mean (geometric % CV): 2573 (135.1) ng*hr/mL
  Cmax, geometric mean (geometric % CV): 297 (236.1) ng/mL
[12]; [18]
  AUCinf, geometric mean (geometric % CV): 3866 (16.1) ng*hr/mL
  Cmax, geometric mean (geometric % CV): 382 (35.8) ng/mL
[12]; 100 mg, high fat meal vs fasted
  food effect on PK: Minimal food effect
[12]; 50-800 mg, fasted
  dose proportionality of AUCinf and Cmax / systemic exposure: increased proportionally with dose; also recorded: largely proportional to dose
[12]; fasted, 50 mg
  AUCinf, mean (% CV): 2056 (20.5)^ ng*hr/mL
  Cmax, mean (% CV): 244 (20.1) ng/mL
  Half-Life, mean (% CV): 6.5 (24.1) Hours
  Tmax, mean (% CV): 1.8 (43.3) Hours
[12]; fasted, 100 mg
  AUCinf, mean (% CV): 3325 (47.3) ng*hr/mL
  Cmax, mean (% CV): 449 (59.3) ng/mL
  Half-Life, mean (% CV): 8.0 (33.0) Hours
  Tmax, mean (% CV): 2.8 (109.7) Hours
[12]; fasted, 150 mg
  AUCinf, mean (% CV): 8569 (37.9)^ ng*hr/mL
  Cmax, mean (% CV): 848 (33.9) ng/mL
  Half-Life, mean (% CV): 9.7 (15.4) Hours
  Tmax, mean (% CV): 1.9 (19.6) Hours
[12]; fasted, 200 mg
  Half-Life, mean (% CV): 9.8 (11.3) Hours
  Tmax, mean (% CV): 2.3 (50.2) Hours
[12]; fasted, 200 mg (5 subjects)
  AUCinf, mean (% CV): 8382 (30.2)^ ng*hr/mL
  Cmax, mean (% CV): 693 (43.0) ng/mL
[12]; fasted, 400 mg
  AUCinf, mean (% CV): 14010 (21.1) ng*hr/mL
  Cmax, mean (% CV): 1351 (18.8) ng/mL
  Half-Life, mean (% CV): 9.5 (9.9) Hours
  Tmax, mean (% CV): 2.4 (57.7) Hours
[12]; fasted, 800 mg
  AUCinf, mean (% CV): 30180 (35.7) ng*hr/mL
  Cmax, mean (% CV): 3015 (32.0) ng/mL
  Half-Life, mean (% CV): 9.0 (9.9) Hours
  Tmax, mean (% CV): 2.9 (33.3) Hours
[12]; fasted, dose 50
  Mean C24: 19.3
  Mean Cmax: 244
  Mean AUCinf: 2056
[12]; fasted, dose 100
  Mean C24: 27.7
  Mean Cmax: 449
  Mean AUCinf: 3325
[12]; fasted, dose 150
  Mean C24: 83.6
  Mean Cmax: 848
  Mean AUCinf: 8569
[12]; fasted, dose 200
  Mean C24: 69.2
  Mean Cmax: 693
  Mean AUCinf: 8382
[12]; fasted, dose 400
  Mean C24: 124.0
  Mean Cmax: 1351
  Mean AUCinf: 14010
[12]; fasted, dose 800
  Mean C24: 274.0
  Mean Cmax: 3015
  Mean AUCinf: 30180
[13]
  drug-related TEAEs and serious AEs: No drug-related TEAEs and no serious AEs; also recorded: no moderate or severe TEAEs, no drug-related TEAEs, no SAEs, and no dose limiting toxicity
  safety and tolerability (in words): generally safe and well tolerated
  severity of TEAEs: all TEAEs were mild (grade 1)
[13]; 50-800 mg single dose
  number of TEAEs observed: 29
[14]
  bioavailability (in words): good bioavailability in all species
Plasma kallikrein [15]; contact activation assay
  fold more potent than C1-INH at inhibiting plasma kallikrein: 11 fold and ~10 fold
Plasma kallikrein [15]; human plasma
  EC50: 8.2 nM
  EC90: 61.6 nM
[16]; 300 mg/kg/day, not considered adverse
  findings at high-dose level: decreases in body weight and food consumption
[16]; 28-day repeat dose
  NOAEL: 300 mg/kg/day

## C1-INH: C1 inhibitor (C1-esterase inhibitor, serpin), which inhibits the activity of plasma kallikrein; comparator [Compound C1-INH]
Plasma kallikrein [1]
  IC50: 25.4 nM
  IC90: 157 nM
Plasma kallikrein [15]; human plasma
  EC50: 92.4 nM
